From patent publication US20240199628A1, “TETRAPYRROLE-BASED COMPOUNDS AND THEIR FOMULATIONS FOR ANTI-MICROBIAL THERAPY” (biolitec Unternehmensbeteiligungs II AG, priority 2021, published 2024)

Experiments:
[1] = system: replication competent HIV-1 infectious molecular env clones (IMC); assay: A3R5 assay, all tested HIV-1 IMCs; type: cell-based; details: two independent runs, concentrations of 2.5 μM and 1.25 μM
Protocol: (§1) Antiviral testing was performed using temoporfin. The organisms studied were replication competent HIV-1 infectious molecular env clones (IMC) in the A3R5 assay. Following IMC were used: (I) 398-71-F6_20-IMC (origin Tansania, Clade A), (II) X2278_C2_B6-IMC (origin Spain, Clade D), (III) 25710_2.43-IMC (origin India, Clade C) and (IV) CNE55-IMC (origin China, Clade […]). Virus specific original env sequences were cloned into the HIV-1 NL4-3 backbone (gene bank ID: M19921) sequence containing a Renilla reniformis luciferase reporter gene to measure the infectivity rate.
(§2) A3R5 cells are grown in RPMI1640 supplemented with 10% fetal calf serum, 25 mM HEPES, 50 μg/ml gentamycine and 1 mg/ml geneticin. […] Within the assay the A3R5 cells were added (plus 5 μg/ml DEAE-Dextran) to the temoporfin samples in the presence of the respective amount of IMC at 50,000 RLU equivalents. After 96 hrs incubation the read out of the A3R5 assays occurred. The decrease of the luminescence compared to the virus control was measured using Victor X3 luminometer (Perkin Elmer) and allowed the detection of a possible inhibitory effect of temoporfin against HIV-1 IMCs.

[2] = system: 398-71-F6_20-IMC (origin Tansania, Clade A); assay: A3R5 assay, virus inhibition, HIV-1 IMC 398-71-F6_20; type: cell-based; details: Human immunodeficiency virus 1, 96 h, read-out: anti-HIV-1 effect (inhibition)
Protocol: as §1, §2

[3] = system: X2278_C2_B6-IMC (origin Spain, Clade D); assay: A3R5 assay, virus inhibition, HIV-1 IMC X2278_C2_B6; type: cell-based; details: 96 h, read-out: anti-HIV-1 effect (inhibition)
Protocol: as §1, §2

[4] = system: 25710_2.43-IMC (origin India, Clade C); assay: A3R5 assay, virus inhibition, HIV-1 IMC 25710_2.43; type: cell-based; details: Human immunodeficiency virus 1, 96 h, read-out: inhibition compared to the virus control
Protocol: as §1, §2

[5] = system: CNE55-IMC (origin China, Clade CRF01_AR); assay: A3R5 assay, virus inhibition, HIV-1 IMC CNE55; type: cell-based; details: Human immunodeficiency virus 1, 96 h, read-out: inhibition compared to the virus control
Protocol: as §1, §2

[6] = system: Staphylococcus aureus biofilms; assay: Antibacterial testing of bacterial biofilms (CFU/ml); type: cell-based, Staphylococcus aureus DSM1104; details: S. aureus biofilms (FIG. 1F)
Protocol: For antibacterial testing of bacterial biofilms the 96 pins of a transferable solid phase plates (TSP; Nunc-Immuno™ TSP with MaxiSorp™ surface) were used to generate the biofilms. The TSP plates were transferred in 96-well plates with 200 μl fresh overnight culture of Staphylococcus aureus DSM1104 cells and incubated at 35° C. about 20 hours by gentle shaking. Within this time the bacterial cells established biofilms on the pins. After removing of unattached cells by gentle washing with 250 μl of 0.9% NaCl solution the TSP plates with the biofilms on the pins were incubated with 250 μl of the photosensitizer solution or the solvent of the photosensitizer solution for control samples for 30 minutes in the dark. After incubation and another washing the pins were irradiated by white light, with a power density and irradiation time resulting in an energy fluence of about 100 J/cm^2. For the quantification of remaining attached cells, the pins were transferred into 250 μl of 0.9% NaCl solution by gentle sonication. The samples are removed, suspended in the culture media, and the numbers of colony-forming units (CFU/ml) are enumerated after an adequate incubation time period.

[7] = system: Staphylococcus aureus; assay: Antibacterial testing in submerged cultures (CFU/ml); type: cell-based; details: S. aureus
Text: The organisms studied were Staphylococcus aureus DSM 1104 and DSM 11729, gram positive, Klebsiella pneumoniae, gram negative, Enterobacter aerogenes, gram negative, and Acinetobacter baumannii, gram negative. For antibacterial testing in submerged cultures cultured cells are suspended in sterile phosphate-buffered saline (PBS), sterile PBS supplemented with 10% sterile horse serum, or sterile PBS supplemented with 10% sheep blood. The bacterial suspensions are placed into sterile black well plates with clear bottoms. Concentrations of photosensitizer used in the study were as follows: 1 μM, 10 μM, 100 μM, and 1 mM. After an incubation time period of 30 minutes, the samples are exposed to white light, with a power density and irradiation time resulting in an energy fluency of about 100 J/cm^2. Control samples contained no photosensitizer and are not exposed to light. The control samples for dark toxicity are only exposed to photosensitizer without any illumination. After irradiation, the samples are removed and suspended again in the culture media. The numbers of colony-forming units (CFU/ml) are enumerated after an adequate incubation time period.

Compound	anti-HIV activity [1]	inhibition at 2.5 µM [2]	inhibition at 2.5 µM [3]	inhibition at 2.5 µM [4]	inhibition at 2.5 µM [5]	antibacterial activity against biofilms [6]	antibacterial activity ([7]; in the absence of light (FIG. 1A))	antibacterial activity ([7]; in the presence of complex media (serum) (FIG. 1A, middle))	antibacterial activity ([7]; in the presence of whole blood (FIG. 1A, right))
Oc1cccc(-c2c3nc(c(-c4cccc(O)c4)c4ccc([nH]4)c(-c4cccc(O)c4)c4nc(c(-c5cccc(O)c5)c5ccc2[nH]5)CC4)C=C3)c1 [Temoporfin, 5,10,15,20-tetrakis(3-hydroxyphenyl)chlorin]	anti-HIV activity was observed	35%	38%	42%	22%				
[5,10,15,20-tetrakis(3-hydroxyphenyl)porphyrinato]zinc(II)						active	high antibacterial activity	activity	activity
